# Assay results from US20050281750A1, “Sprayable compositions comprising a combination of pharmaceutical active agents, an alcohol phase, at least one volatile silicone and a non-volatile oily phase” (GALDERMA S.A., priority 2004, published 2005).
# Experiments:
# Assay type in all cases: physicochemical
# [1] = Stability of calcitriol in Cetiol SN (cetearyl isononanoate) (HPLC assay); conditions: for Measured concentration of calcitriol in % relative to T0: 30 ppm in Cetiol SN, 0.4% BHT
# Excerpt: (§1) Calcitriol stability data were generated in various excipients, including ethanol 100, an ethanol 100 (75%)/cyclomethicone 5 (25%) mixture, or oils such as Miglyol 812 and Cetiol SN. • a) Stability of Calcitriol in Ethanol: d) Stability of Calcitriol in Cetiol SN (Cetearyl Isononanoate): Solution of 30 ppm of calcitriol in qsp 100% of Cetiol SN (cetearyl isononanoate), in the presence of 0.4% of BHT. Technique of HPLC assay against a reference substance. At the starting time (T0) the composition is considered to comprise 100% of calcitriol. Measured concentration of calcitriol in % relative to T0: […]
# [2] = Stability of calcitriol in ethanol/cyclopentasiloxane (HPLC assay against a reference substance); conditions: for Measured concentration of calcitriol in % relative to T0: 30 ppm in 75% absolute ethanol + 25% cyclopentasiloxane, 0.02% BHT
# Excerpt: as §1, with “Ethanol: b)” for “Ethanol: d)”, “in Ethanol/Cyclopentasiloxane:” for “in Cetiol SN (Cetearyl Isononanoate):”, “qsp 75%” for “qsp 100%”, “of absolute ethanol+25% of cyclopentasiloxane,” for “of Cetiol SN (cetearyl isononanoate),”, “of 0.02%” for “of 0.4%”
# [3] = Stability of calcitriol in ethanol (HPLC assay against a reference substance); conditions: for Measured concentration of calcitriol in % relative to T0: 30 ppm in absolute ethanol, 0.02% BHT
# Excerpt: Calcitriol stability data were generated in various excipients, including ethanol 100, an ethanol 100 (75%)/cyclomethicone 5 (25%) mixture, or oils such as Miglyol 812 and Cetiol SN. • a) Stability of Calcitriol in Ethanol: Solution of 30 ppm of calcitriol in qsp 100% of absolute ethanol, in the presence of 0.02% of BHT. Technique of HPLC assay against a reference substance. At the starting time (T0) the composition is considered to comprise 100% of calcitriol. Measured concentration of calcitriol in % relative to T0: […]
# [4] = Stability of calcitriol in Miglyol 812 (caprylic/capric triglycerides) (HPLC assay); conditions: for Measured concentration of calcitriol in % relative to T0: 30 ppm in Miglyol 812, 0.4% BHT
# Excerpt: Calcitriol stability data were generated in various excipients, including ethanol 100, an ethanol 100 (75%)/cyclomethicone 5 (25%) mixture, or oils such as Miglyol 812 and Cetiol SN. • a) Stability of Calcitriol in Ethanol: c) Stability of Calcitriol in Miglyol 812 (Caprylic/Capric Triglycerides): Solution of 30 ppm of calcitriol in qsp 100% of Miglyol 812, in the presence of 0.4% of BHT. Technique of HPLC assay against a reference substance. At the starting time (T0) the composition is considered to comprise 100% of calcitriol. Measured concentration of calcitriol in % relative to T0: […]
structure (smiles),measurement,setting,value
C=C1/C(=C\C=C2/CCC[C@]3(C)[C@@H]([C@H](C)CCCC(C)(C)O)CC[C@@H]23)C[C@@H](O)C[C@@H]1O [calcitriol],Measured concentration of calcitriol in % relative to T0,"[1]; +4° C., T 2 weeks",98.6%
same,Measured concentration of calcitriol in % relative to T0,"[1]; +4° C., T 4 weeks",98.1%
same,Measured concentration of calcitriol in % relative to T0,"[1]; +40° C., T 2 weeks",99.0%
same,Measured concentration of calcitriol in % relative to T0,"[1]; +40° C., T 4 weeks",98.9%
same,Measured concentration of calcitriol in % relative to T0,"[1]; RT, T 2 weeks",98.7%
same,Measured concentration of calcitriol in % relative to T0,"[1]; RT, T 4 weeks",98.4%
same,Stability of calcitriol (in words),[1]; in Cetiol SN,good stability
same,Measured concentration of calcitriol in % relative to T0,"[2]; +4° C., T 2 weeks",99.2%
same,Measured concentration of calcitriol in % relative to T0,"[2]; +4° C., T 3 weeks",99.6%
same,Measured concentration of calcitriol in % relative to T0,"[2]; +4° C., T 4 weeks",97.5%
same,Measured concentration of calcitriol in % relative to T0,"[2]; +30° C., T 2 weeks",93.8%
same,Measured concentration of calcitriol in % relative to T0,"[2]; +30° C., T 4 weeks",93.3%
same,Measured concentration of calcitriol in % relative to T0,"[2]; −18° C., T 2 weeks",100.4%
same,Measured concentration of calcitriol in % relative to T0,"[2]; −18° C., T 3 weeks",101.3%
same,Measured concentration of calcitriol in % relative to T0,"[2]; −18° C., T 4 weeks",99.2%
same,Stability of calcitriol (in words),[2]; in an ethanol/cyclopentasiloxane mixture,good stability
same,Measured concentration of calcitriol in % relative to T0,"[3]; +4° C., T 1 week",97.7%
same,Measured concentration of calcitriol in % relative to T0,"[3]; +4° C., T 2 weeks",98.6%
same,Measured concentration of calcitriol in % relative to T0,"[3]; +4° C., T 3 weeks",98.1%
same,Measured concentration of calcitriol in % relative to T0,"[3]; +4° C., T 4 weeks",97.7%
same,Measured concentration of calcitriol in % relative to T0,"[3]; +30° C., T 2 weeks",93.4%
same,Measured concentration of calcitriol in % relative to T0,"[3]; +30° C., T 4 weeks",93.0%
same,Measured concentration of calcitriol in % relative to T0,"[3]; −18° C., T 1 week",100.9%
same,Measured concentration of calcitriol in % relative to T0,"[3]; −18° C., T 2 weeks",100.5%
same,Measured concentration of calcitriol in % relative to T0,"[3]; −18° C., T 3 weeks",99.5%
same,Measured concentration of calcitriol in % relative to T0,"[3]; −18° C., T 4 weeks",99.5%
same,Stability of calcitriol (in words),[3]; in ethanol,good stability
same,Measured concentration of calcitriol in % relative to T0,"[4]; +4° C., T 2 weeks",98.3%
same,Measured concentration of calcitriol in % relative to T0,"[4]; +4° C., T 4 weeks",105.2%
same,Measured concentration of calcitriol in % relative to T0,"[4]; +40° C., T 2 weeks",91%
same,Measured concentration of calcitriol in % relative to T0,"[4]; +40° C., T 4 weeks",93.8%
same,Measured concentration of calcitriol in % relative to T0,"[4]; RT, T 2 weeks",95.1%
same,Measured concentration of calcitriol in % relative to T0,"[4]; RT, T 4 weeks",98.0%
same,Stability of calcitriol (in words),[4]; in Miglyol 812,good stability
